Measured values: the NIST ThermoML archive (doi:10.1021/je900194v)
Where “and” joins values, the source holds several entries; their conditions need not be identical. Equal entries are not always repeated. ± gives the expanded uncertainty stated by the source.

Assays:
[1] = 101 kPa, Liquid; for viscosity: Capillary tube (Ostwald / Ubbelohde) method; for mass density: Vibrating tube method
[2] = xn = mol fraction of the nth substance listed; settings: 101 kPa, Liquid; for viscosity: Capillary tube (Ostwald / Ubbelohde) method; for mass density: Vibrating tube method

Cc1ccccc1C [1,2-dimethylbenzene]
[1]
Settings	mass density [kg/m3]	viscosity [mPa·s]
298.15 K	875.08 ± 0.15	0.758 ± 0.008
308.15 K	866.62 ± 0.15	0.665 ± 0.007
318.15 K	858.12 ± 0.15	0.589 ± 0.007

Cc1ccccc1C [1,2-dimethylbenzene] + COC(=O)CCCCl
[2], x2 = 0
Settings	mass density [kg/m3]	viscosity [mPa·s]
298.15 K	875.08 ± 0.15	0.758 ± 0.008
308.15 K	866.62 ± 0.15	0.665 ± 0.007
318.15 K	858.12 ± 0.15	0.589 ± 0.007

Cc1cccc(C)c1 [1,3-dimethylbenzene]
[1]
Settings	mass density [kg/m3]	viscosity [mPa·s]
298.15 K	859.83 ± 0.18	0.587 ± 0.007
308.15 K	851.19 ± 0.18	0.524 ± 0.007
318.15 K	842.49 ± 0.18	0.471 ± 0.007

Cc1cccc(C)c1 [1,3-dimethylbenzene] + COC(=O)CCCCl
[2], x2 = 0
Settings	mass density [kg/m3]	viscosity [mPa·s]
298.15 K	859.83 ± 0.18	0.587 ± 0.007
308.15 K	851.19 ± 0.18	0.524 ± 0.007
318.15 K	842.49 ± 0.18	0.471 ± 0.007

Cc1ccc(C)cc1 [1,4-dimethylbenzene]
[1]
Settings	mass density [kg/m3]	viscosity [mPa·s]
298.15 K	856.68 ± 0.14	0.609 ± 0.007
308.15 K	847.96 ± 0.14	0.541 ± 0.007
318.15 K	839.2 ± 0.15	0.484 ± 0.007

Cc1ccc(C)cc1 [1,4-dimethylbenzene] + COC(=O)CCCCl
[2], x2 = 0
Settings	mass density [kg/m3]	viscosity [mPa·s]
298.15 K	856.68 ± 0.14	0.609 ± 0.007
308.15 K	847.96 ± 0.14	0.541 ± 0.007
318.15 K	839.2 ± 0.15	0.484 ± 0.007

c1ccccc1 [benzene]
[1]
Settings	mass density [kg/m3]	viscosity [mPa·s]
298.15 K	873.61 ± 0.15	0.603 ± 0.007
308.15 K	862.28 ± 0.15	0.533 ± 0.007
318.15 K	852.08 ± 0.15	0.466 ± 0.007

c1ccccc1 [benzene] + COC(=O)CCCCl
[2], x2 = 0
Settings	mass density [kg/m3]	viscosity [mPa·s]
298.15 K	873.61 ± 0.15	0.603 ± 0.007
308.15 K	862.28 ± 0.15	0.533 ± 0.007
318.15 K	852.08 ± 0.15	0.466 ± 0.007

COC(=O)CCCCl [methyl 4-chlorobutanoate]
[1]
Settings	mass density	viscosity [mPa·s]
298.15 K	1116.24 ± 0.13 kg/m3	1.519 ± 0.01
308.15 K	1105.22 ± 0.13 kg/m3 and 1105.23 ± 0.13 kg/m3	1.279 ± 0.009
318.15 K	1094.13 ± 0.12 kg/m3	1.089 ± 0.009

COC(=O)CCCCl [methyl 4-chlorobutanoate] + Cc1ccc(C)cc1
[2]
Settings	mass density, 298.15 K [kg/m3]	mass density, 308.15 K [kg/m3]	mass density, 318.15 K [kg/m3]	viscosity, 298.15 K [mPa·s]	viscosity, 308.15 K [mPa·s]	viscosity, 318.15 K [mPa·s]
x1 = 0.0999	882.47 ± 0.14	873.48 ± 0.14	864.45 ± 0.14	0.662 ± 0.007	0.586 ± 0.007	0.522 ± 0.007
x1 = 0.2001	908.43 ± 0.14	899.17 ± 0.14	889.87 ± 0.14	0.714 ± 0.007	0.629 ± 0.007	0.561 ± 0.007
x1 = 0.3	934.33 ± 0.15	924.84 ± 0.15	915.3 ± 0.15	0.775 ± 0.008	0.679 ± 0.007	0.6 ± 0.007
x1 = 0.4001	960.27 ± 0.16	950.54 ± 0.16	940.77 ± 0.16	0.847 ± 0.008	0.738 ± 0.008	0.651 ± 0.007
x1 = 0.4999	986.16 ± 0.17	976.2 ± 0.17	966.2 ± 0.17	0.927 ± 0.008	0.806 ± 0.008	0.705 ± 0.007
x1 = 0.6	1012.09 ± 0.15	1001.91 ± 0.15	991.69 ± 0.15	1.023 ± 0.008	0.886 ± 0.008	0.772 ± 0.008
x1 = 0.7	1038.03 ± 0.14	1027.62 ± 0.14	1017.19 ± 0.14	1.133 ± 0.009	0.978 ± 0.008	0.846 ± 0.008
x1 = 0.8	1063.99 ± 0.13	1053.37 ± 0.13	1042.71 ± 0.13	1.255 ± 0.009	1.077 ± 0.009	0.926 ± 0.008
x1 = 0.9	1090.06 ± 0.13	1079.25 ± 0.12	1068.37 ± 0.12	1.385 ± 0.01	1.179 ± 0.009	1.008 ± 0.008
x1 = 1	1116.24 ± 0.13	1105.23 ± 0.13	1094.13 ± 0.12	1.519 ± 0.01	1.279 ± 0.009	1.089 ± 0.009

COC(=O)CCCCl [methyl 4-chlorobutanoate] + Cc1cccc(C)c1
[2]
Settings	mass density, 298.15 K [kg/m3]	mass density, 308.15 K [kg/m3]	mass density, 318.15 K [kg/m3]	viscosity, 298.15 K [mPa·s]	viscosity, 308.15 K [mPa·s]	viscosity, 318.15 K [mPa·s]
x1 = 0.0999	885.23 ± 0.17	876.33 ± 0.17	867.38 ± 0.17	0.639 ± 0.007	0.571 ± 0.007	0.512 ± 0.007
x1 = 0.1999	910.66 ± 0.16	901.49 ± 0.16	892.27 ± 0.16	0.7 ± 0.008	0.624 ± 0.007	0.55 ± 0.007
x1 = 0.2999	936.14 ± 0.16	926.72 ± 0.16	917.26 ± 0.16	0.769 ± 0.008	0.674 ± 0.007	0.596 ± 0.007
x1 = 0.399	961.41 ± 0.17	951.74 ± 0.17	942.03 ± 0.17	0.843 ± 0.008	0.737 ± 0.008	0.649 ± 0.007
x1 = 0.4999	987.21 ± 0.18	977.32 ± 0.18	967.37 ± 0.18	0.928 ± 0.008	0.807 ± 0.008	0.706 ± 0.008
x1 = 0.5995	1012.73 ± 0.16	1002.6 ± 0.16	992.39 ± 0.16	1.022 ± 0.009	0.882 ± 0.008	0.77 ± 0.008
x1 = 0.6996	1038.43 ± 0.14	1028.06 ± 0.14	1017.63 ± 0.14	1.128 ± 0.009	0.966 ± 0.008	0.839 ± 0.008
x1 = 0.7992	1064.11 ± 0.13	1053.51 ± 0.13	1042.83 ± 0.13	1.238 ± 0.009	1.062 ± 0.009	0.92 ± 0.008
x1 = 0.8999	1090.15 ± 0.13	1079.3 ± 0.13	1068.38 ± 0.12	1.368 ± 0.01	1.163 ± 0.009	1.004 ± 0.008
x1 = 1	1116.24 ± 0.13	1105.22 ± 0.13	1094.13 ± 0.12	1.519 ± 0.01	1.279 ± 0.009	1.089 ± 0.009
